Laboratory results as given in the NIST ThermoML archive (doi:10.1016/j.jct.2019.01.021).
± gives the expanded uncertainty stated by the source.

What was measured:
[1] = Molar enthalpy of transition or fusion
[2] = for molar entropy: 101.33 kPa, Small (less than 1 g) adiabatic calorimetry
[3] = Crystal 2, Adiabatic calorimetry

Structure (SMILES): N.NS(=O)(=O)O [ammonium sulfamate]
- Molar enthalpy of transition or fusion ([1]; Crystal 1, DSC): 3.87 ± 0.191 kcal/mol
- Molar enthalpy of transition or fusion [1, 3]: 0.00287 ± 0.00191 kcal/mol
- molar entropy ([2]; 5 K, Crystal 2): 0.0002827 J/K/mol
- molar entropy ([2]; 10 K, Crystal 2): 0.07483 ± 0.025 J/K/mol
- molar entropy ([2]; 15 K, Crystal 2): 0.4656 ± 0.091 J/K/mol
- molar entropy ([2]; 20 K, Crystal 2): 1.33 ± 0.25 J/K/mol
- molar entropy ([2]; 25 K, Crystal 2): 2.661 ± 0.17 J/K/mol
- molar entropy ([2]; 30 K, Crystal 2): 4.49 ± 0.25 J/K/mol
- molar entropy ([2]; 35 K, Crystal 2): 6.735 ± 0.42 J/K/mol
- molar entropy ([2]; 40 K, Crystal 2): 9.229 ± 0.5 J/K/mol
- molar entropy ([2]; 45 K, Crystal 2): 12.14 ± 0.42 J/K/mol
- molar entropy ([2]; 50 K, Crystal 2): 15.13 ± 0.5 J/K/mol
- molar entropy ([2]; 55 K, Crystal 2): 18.29 ± 0.58 J/K/mol
- molar entropy ([2]; 60 K, Crystal 2): 21.53 ± 0.67 J/K/mol
- molar entropy ([2]; 65 K, Crystal 2): 24.86 ± 0.75 J/K/mol
- molar entropy ([2]; 70 K, Crystal 2): 28.35 ± 0.91 J/K/mol
- molar entropy ([2]; 75 K, Crystal 2): 31.84 ± 1 J/K/mol
- molar entropy ([2]; 80 K, Crystal 2): 35.42 ± 1.2 J/K/mol
- molar entropy ([2]; 90 K, Crystal 2): 42.65 ± 1.2 J/K/mol
- molar entropy ([2]; 100 K, Crystal 2): 49.97 ± 0.83 J/K/mol
- molar entropy ([2]; 110 K, Crystal 2): 57.29 ± 1 J/K/mol
- molar entropy ([2]; 120 K, Crystal 2): 64.6 ± 1.1 J/K/mol
- molar entropy ([2]; 130 K, Crystal 2): 71.75 ± 1.2 J/K/mol
- molar entropy ([2]; 140 K, Crystal 2): 78.82 ± 1.2 J/K/mol
- molar entropy ([2]; 150 K, Crystal 2): 85.64 ± 1.7 J/K/mol
- molar entropy ([2]; 160 K, Crystal 2): 92.29 ± 1.7 J/K/mol
- molar entropy ([2]; 170 K, Crystal 2): 98.94 ± 1.7 J/K/mol
- molar entropy ([2]; 180 K, Crystal 2): 105.59 ± 1.7 J/K/mol
- molar entropy ([2]; 190 K, Crystal 2): 112.25 ± 1.7 J/K/mol
- molar entropy ([2]; 200 K, Crystal 2): 118.07 ± 1.7 J/K/mol
- molar entropy ([2]; 210 K, Crystal 2): 123.89 ± 1.7 J/K/mol
- molar entropy ([2]; 220 K, Crystal 2): 130.54 ± 1.7 J/K/mol
- molar entropy ([2]; 230 K, Crystal 2): 136.36 ± 1.7 J/K/mol
- molar entropy ([2]; 240 K, Crystal 2): 141.35 ± 1.7 J/K/mol
- molar entropy ([2]; 260 K, Crystal 1): 152.99 ± 1.7 J/K/mol
- molar entropy ([2]; 270 K, Crystal 1): 157.97 ± 1.7 J/K/mol
- molar entropy ([2]; 280 K, Crystal 1): 163.79 ± 1.7 J/K/mol
- molar entropy ([2]; 290 K, Crystal 1): 168.78 ± 1.7 J/K/mol
- molar entropy ([2]; 298.15 K, Crystal 1): 172.94 ± 2.5 J/K/mol
- molar entropy ([2]; 300 K, Crystal 1): 173.77 ± 2.5 J/K/mol
- molar entropy ([2]; 310 K, Crystal 1): 178.76 ± 2.5 J/K/mol
- molar entropy ([2]; 320 K, Crystal 1): 183.75 ± 2.5 J/K/mol
- molar entropy ([2]; 330 K, Crystal 1): 188.74 ± 2.5 J/K/mol
- Normal melting temperature ([2]; Crystal 1, DTA): 133.0 ± 0.4 °C
- Triple point temperature [2, 3]: 254.5 ± 0.2 K
